According to patent publication US20230295182A1, “SPIRO DERIVATIVES OF ALPHA-D-GALACTOPYRANOSIDES” (Idorsia Pharmaceuticals Ltd, priority 2020, published 2023):

What was measured:
human Gal-1 (hGal-1) = human Gal-1 (hGal-1) (Homo sapiens, UniProt P09382); assay: Competitive binding assay: biotinylated hGal-1 to microplate-adsorbed asialofetuin (ASF); settings: Activities on hGal-1; binding to ASF-coated plates, 3 hours at 4° C.; mean values; read-out: Gal-1 IC50
Description: Evaluation of Compound Inhibitory Activity (IC50) The inhibitory activity of compounds is determined in competitive binding assays. […] Alternatively, and preferably, a human Gal-1 version in which all six cysteines are substituted by serines may be used. Briefly, compounds are serially diluted in DMSO (working dilutions). […] Plates are incubated for 3 hours at 4° C., then washed with cold assay buffer (3×50 uL), incubated for 1 hour with 25 μL/well of a streptavidin-peroxidase solution (diluted in assay buffer to 80 ng/mL) at 4° C., followed by further washing steps with assay buffer (3×50 uL). Finally, 25 µL/well of ABTS substrate is added. […] The calculated IC50 values may fluctuate depending on the daily assay performance. Fluctuations of this kind are known to those skilled in the art. IC50 values from several measurements are given as mean values.

human Gal-3 (hGal-3) = human Gal-3 (hGal-3) (Homo sapiens (Human), UniProt P17931); assay: Competitive binding assay: biotinylated hGal-3 to microplate-adsorbed asialofetuin (ASF); settings: Activity on hGal-3; binding to ASF-coated plates, 3 hours at 4° C.; mean values
Description: Evaluation of Compound Inhibitory Activity (IC50)
The inhibitory activity of compounds is determined in competitive binding assays. This spectrophotometric assay measures the binding of biotinylated human Gal-3 (hGal-3) or human Gal-1 (hGal-1), respectively, to a microplate-adsorbed glycoprotein, asialofetuin (ASF) (Proc Natl Acad Sci USA. 2013 Mar. 26; 110(13):5052-7.). Alternatively, and preferably, a human Gal-1 version in which all six cysteines are substituted by serines may be used.
Briefly, compounds are serially diluted in DMSO (working dilutions). ASF-coated 384 well plates are supplemented with 22.8 μL/well of biotinylated hGal-3 or hGal-1 in assay buffer (i.e. 300-1000 ng/mL biotinylated hGal-3 or hGal-1) to which 1.2 µL of compound working dilutions are added and mixed.
Plates are incubated for 3 hours at 4° C., then washed with cold assay buffer (3×50 uL), incubated for 1 hour with 25 μL/well of a streptavidin-peroxidase solution (diluted in assay buffer to 80 ng/mL) at 4° C., followed by further washing steps with assay buffer (3×50 uL). Finally, 25 µL/well of ABTS substrate is added.
The calculated IC50 values may fluctuate depending on the daily assay performance. Fluctuations of this kind are known to those skilled in the art. IC50 values from several measurements are given as mean values.

human Gal-3 (hGal-3), sequence (P17931 whole entry): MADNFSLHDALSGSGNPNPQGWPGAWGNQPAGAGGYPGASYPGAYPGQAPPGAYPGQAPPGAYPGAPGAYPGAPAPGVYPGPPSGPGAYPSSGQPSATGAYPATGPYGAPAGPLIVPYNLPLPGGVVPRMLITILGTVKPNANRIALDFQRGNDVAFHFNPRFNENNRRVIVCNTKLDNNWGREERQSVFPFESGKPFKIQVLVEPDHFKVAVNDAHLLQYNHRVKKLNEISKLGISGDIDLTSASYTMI
human Gal-1 (hGal-1), sequence (P09382 2-135 limits assumed): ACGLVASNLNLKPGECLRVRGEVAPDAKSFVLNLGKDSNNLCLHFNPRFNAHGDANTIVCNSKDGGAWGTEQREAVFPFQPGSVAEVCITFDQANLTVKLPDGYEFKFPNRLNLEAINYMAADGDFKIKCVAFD

SMILES | IC50 (human Gal-1 (hGal-1)) | IC50 (human Gal-3 (hGal-3))
CO[C@@H]1[C@@H](n2cc(-c3cc(F)c(F)c(F)c3)nn2)[C@@H](O)[C@@H](CO)O[C@@H]1CC1=NO[C@]2(CC[C@@H](NC(=O)OC(C)(C)C)CC2)C1 [Example 1.16, tert-butyl ((5s,8S)-3-(((2R,3R,4S,5R,6R)-5-hydroxy-6-(hydroxymethyl)-3-methoxy-4-(4-(3,4,5-trifluorophenyl)-1H-1,2,3-triazol-1-yl)tetrahydro-2H-pyran-2-yl)methyl)-1-oxa-2-azaspiro[4.5]dec-2-en-8-yl)carbamate] | 2.3 µM | 0.34 µM
CO[C@@H]1[C@@H](n2cc(-c3ccc(C)c(F)c3F)nn2)[C@@H](O)[C@@H](CO)O[C@@H]1CC1=NOC2(CCOCC2)C1 [Example 1.36, (2R,3R,4S,5R,6R)-6-((1,8-dioxa-2-azaspiro[4.5]dec-2-en-3-yl)methyl)-4-(4-(2,3-difluoro-4-methylphenyl)-1H-1,2,3-triazol-1-yl)-2-(hydroxymethyl)-5-methoxytetrahydro-2H-pyran-3-ol] | 3.8 µM | 0.064 µM
CO[C@@H]1[C@@H](n2cc(-c3ccc(Cl)c(F)c3F)nn2)[C@@H](O)[C@@H](CO)O[C@@H]1CC1=NO[C@]2(CC[C@@H](C#N)CC2)C1 [Example 1.60, (5s,8S)-3-(((2R,3R,4S,5R,6R)-4-(4-(4-chloro-2,3-difluorophenyl)-1H-1,2,3-triazol-1-yl)-5-hydroxy-6-(hydroxymethyl)-3-methoxytetrahydro-2H-pyran-2-yl)methyl)-1-oxa-2-azaspiro[4.5]dec-2-ene-8-carbonitrile] | 1.6 µM | 0.09 µM
CC(=O)O[C@@H]1[C@@H](n2cc(-c3ccc(C)c(F)c3F)nn2)[C@@H](O)[C@@H](CO)O[C@@H]1CC1=NOC2(CCC(F)(F)CC2)C1 [Example 1.03, (2R,3R,4S,5R,6R)-2-((8,8-difluoro-1-oxa-2-azaspiro[4.5]dec-2-en-3-yl)methyl)-4-(4-(2,3-difluoro-4-methylphenyl)-1H-1,2,3-triazol-1-yl)-5-hydroxy-6-(hydroxymethyl)tetrahydro-2H-pyran-3-yl acetate] | > 100 µM | 0.079 µM
CO[C@@H]1[C@@H](n2cc(-c3ccc(F)c(F)c3F)nn2)[C@@H](O)[C@@H](CO)O[C@@H]1CC1=NOC2(CCC(C#N)CC2)C1 (stereo partly drawn) [Example 1.50, 3-(((2R,3R,4S,5R,6R)-5-hydroxy-6-(hydroxymethyl)-3-methoxy-4-(4-(2,3,4-trifluorophenyl)-1H-1,2,3-triazol-1-yl)tetrahydro-2H-pyran-2-yl)methyl)-1-oxa-2-azaspiro[4.5]dec-2-ene-8-carbonitrile] | 0.57 µM | 0.16 µM
CC(=O)O[C@@H]1[C@@H](n2cc(-c3ccc(C)c(F)c3F)nn2)[C@@H](O)[C@@H](CO)O[C@@H]1CC1=NOC2(CCOCC2)C1 [Example 1.01, (2R,3R,4S,5R,6R)-2-((1,8-dioxa-2-azaspiro[4.5]dec-2-en-3-yl)methyl)-4-(4-(2,3-difluoro-4-methylphenyl)-1H-1,2,3-triazol-1-yl)-5-hydroxy-6-(hydroxymethyl)tetrahydro-2H-pyran-3-yl acetate] | 4.2 µM | 0.061 µM
CO[C@@H]1[C@@H](n2cc(-c3ccc(F)c(F)c3F)nn2)[C@@H](O)[C@@H](CO)O[C@@H]1CC1=NO[C@]2(CC[C@H](C(C)(C)O)CC2)C1 [Example 1.52, (2R,3R,4S,5R,6R)-2-(hydroxymethyl)-6-(((5r,8R)-8-(2-hydroxypropan-2-yl)-1-oxa-2-azaspiro[4.5]dec-2-en-3-yl)methyl)-5-methoxy-4-(4-(2,3,4-trifluorophenyl)-1H-1,2,3-triazol-1-yl)tetrahydro-2H-pyran-3-ol] | 2.8 µM | 0.26 µM
CO[C@@H]1[C@@H](n2cc(-c3cc(F)c(F)c(F)c3)nn2)[C@@H](O)[C@@H](CO)O[C@@H]1CC1=NO[C@]2(CC[C@@H](C#N)CC2)C1 [Example 1.39, (5s,8S)-3-(((2R,3R,4S,5R,6R)-5-hydroxy-6-(hydroxymethyl)-3-methoxy-4-(4-(3,4,5-trifluorophenyl)-1H-1,2,3-triazol-1-yl)tetrahydro-2H-pyran-2-yl)methyl)-1-oxa-2-azaspiro[4.5]dec-2-ene-8-carbonitrile] | 7.1 µM | 0.26 µM
CO[C@@H]1[C@@H](n2cc(-c3ccc(Cl)c(F)c3F)nn2)[C@@H](O)[C@@H](CO)O[C@@H]1CC1=NOC2(CCCCC2)C1 [Example 1.22, (2R,3R,4S,5R,6R)-6-((1-oxa-2-azaspiro[4.5]dec-2-en-3-yl)methyl)-4-(4-(4-chloro-2,3-difluorophenyl)-1H-1,2,3-triazol-1-yl)-2-(hydroxymethyl)-5-methoxytetrahydro-2H-pyran-3-ol] | 3.7 µM | 0.076 µM
CO[C@@H]1[C@@H](n2cc(-c3cc(F)c(C)c(F)c3)nn2)[C@@H](O)[C@@H](CO)O[C@@H]1CC1=NOC2(CCCCC2)C1 [Example 1.21, (2R,3R,4S,5R,6R)-6-((1-oxa-2-azaspiro[4.5]dec-2-en-3-yl)methyl)-4-(4-(3,5-difluoro-4-methylphenyl)-1H-1,2,3-triazol-1-yl)-2-(hydroxymethyl)-5-methoxytetrahydro-2H-pyran-3-ol] | 11.4 µM | 0.11 µM
CO[C@@H]1[C@@H](n2cc(-c3ccc(Cl)c(F)c3F)nn2)[C@@H](O)[C@@H](CO)O[C@@H]1CC1=NOC2(CCOCC2)C1 [Example 1.37, (2R,3R,4S,5R,6R)-6-((1,8-dioxa-2-azaspiro[4.5]dec-2-en-3-yl)methyl)-4-(4-(4-chloro-2,3-difluorophenyl)-1H-1,2,3-triazol-1-yl)-2-(hydroxymethyl)-5-methoxytetrahydro-2H-pyran-3-ol] | 4.6 µM | 0.12 µM

Next, values leading:

IC50 (human Gal-1 (hGal-1)) | IC50 (human Gal-3 (hGal-3)) | SMILES
2.4 µM | 0.24 µM | CO[C@@H]1[C@@H](n2cc(-c3cc(F)c(F)c(F)c3)nn2)[C@@H](O)[C@@H](CO)O[C@@H]1CC1=NOC2(CCC(NC3CC3)CC2)C1 (stereo partly drawn) [Example 2.16, (2R,3R,4S,5R,6R)-6-((8-(cyclopropylamino)-1-oxa-2-azaspiro[4.5]dec-2-en-3-yl)methyl)-2-(hydroxymethyl)-5-methoxy-4-(4-(3,4,5-trifluorophenyl)-1H-1,2,3-triazol-1-yl)tetrahydro-2H-pyran-3-ol]
0.34 µM | 0.071 µM | CO[C@@H]1[C@@H](n2cc(-c3ccc(C)c(F)c3F)nn2)[C@@H](O)[C@@H](CO)O[C@@H]1CC1=NO[C@]2(CC[C@H](NC(C)=O)CC2)C1 [Example 2.06]
4.8 µM | 0.38 µM | CO[C@@H]1[C@@H](n2cc(-c3cc(F)c(F)c(F)c3)nn2)[C@@H](O)[C@@H](CO)O[C@@H]1CC1=NOC2(CCN(C)CC2)C1 [Example 2.29, (2R,3R,4S,5R,6R)-2-(hydroxymethyl)-5-methoxy-6-((8-methyl-1-oxa-2,8-diazaspiro[4.5]dec-2-en-3-yl)methyl)-4-(4-(3,4,5-trifluorophenyl)-1H-1,2,3-triazol-1-yl)tetrahydro-2H-pyran-3-ol]
1.7 µM | 0.14 µM | CO[C@@H]1[C@@H](n2cc(-c3cc(F)c(F)c(F)c3)nn2)[C@@H](O)[C@@H](CO)O[C@@H]1CC1=NOC2(CCN(C(=O)NC(C)(C)C)CC2)C1 [Example 2.28, N-(tert-butyl)-3-(((2R,3R,4S,5R,6R)-5-hydroxy-6-(hydroxymethyl)-3-methoxy-4-(4-(3,4,5-trifluorophenyl)-1H-1,2,3-triazol-1-yl)tetrahydro-2H-pyran-2-yl)methyl)-1-oxa-2,8-diazaspiro[4.5]dec-2-ene-8-carboxamide]
